The test system of series [1] is RAW 264.7 cells. As to the kind of experiment: MTT cytotoxicity (LC50) and therapeutic index analysis. The format is cell-based, mouse. Particulars: 24 h, among the 13 selected compounds. As to the method: RAW 264.7 cells were seeded at a density of 2×10^4 cells/well in a 96-well cell culture plate and stabilized overnight in a humidified incubator. Each well was treated with a test compound or negative control (dimethyl sulfoxide; DMSO). The plates were allowed to stand in an incubator for 24 hours. Then, the medium of the 96-well culture dish was discarded and 500 μg/ml MTT solution (InvivoGen Ltd.) was added to each well. After incubation for 3 hours, the solution was removed and the residue was incubated in DMSO (Biosesang Co. Ltd., Korea) for 30 minutes to completely dissolve the formazan dye. The absorbance was measured at a wavelength of 595 nm with a microplate colorimetric reader and normalized based on the untreated control. All cultures were performed under the same conditions as in the cell culture described above.
In order to plot the concentration-dependent LC50 curves, treatment with the SK series ligands at different concentrations up to 200 μM (the highest concentration that could be treated within the level of 0.5% DMSO) was performed. Then, cell viability and toxicity response upon treatment with ligands were analyzed by MTT as described in Examples 1-3. Cell viability in each plot was normalized from negative control (100%; no treatment) to positive control (highest concentration of test-ligand), and LC50 was determined by non-linear regression (Graph Pad Prism 7.0). In order to plot the concentration-dependent IC50 curves, pre-treatment with the SK series ligands was performed at different concentrations up to 50 μM (twice the initial concentration). Cell responses mediated by TLR7 and TLR9 (levels of TNF-α secretion) were analyzed by ELISA as described in Examples 1-4. The cytokine level in each plot was normalized from negative control (non-treated) to positive control (treatment with ligand), and IC50 was determined by non-linear regression (Graph Pad Prism 7.0).
Then, LC50 and IC50 were applied to the following function to calculate TI.

Series [2] addresses T1, TLR1/2 (Mus musculus, UniProt Q9EPQ1+Q9QUN7).
T1 construct: endogenous in cells; host or cells: RAW 264.7
As to the kind of experiment: TNF-α secretion ELISA after Pam3CSK4 in RAW 264.7 cells. The format is cell-based. How it is done: (§1) In order to determine the inhibitory activities of the test-ligand, RAW 264.7 cells were pretreated with each candidate compound for 1 hour, then treated with Pam3CSK4 (synthetic triacyl lipopeptide; TLR1/2, Invitrogen), FSL-1 (synthetic diacyl lipoprotein, TLR2/6, 100 ng/ml), lipopolysaccharide (LPS, TLR4, Sigma Aldrich), imiquimod (IMQ, TLR7, Invitrogen), and ODN2395 (type C CpG repeat motif DNA oligo(5′-[…]-3), TLR9, Bioneer) ligand for 4 hours, and treated with poly I:C (I:C repeat motif double-stranded RNA, TLR3, Invitrogen) and TL8-506 (TLR8, Invitrogen) showing delayed reactivity for 24 hours. After activation of TLR, the supernatant was diluted in an appropriate ratio so as to measure within the standard dose range, transferred to a pre-coated 96-well assay plate, and then treated with mouse TNF-alpha secretion level in accordance with the manufacturer's instructions using a mouse-TNF-alpha ELISA-kit (Invitrogen).
(§2) In order to determine the inhibitory activities of SK41, SK50, SK58 and SK64 on various TLR signaling pathways, RAW 264.7 cells were cultured along with each compound and then stimulated with different TLR agonists. The TLR agonists used herein were Pam3CSK4 (TLR1/2), FSL-1 (TLR2/6), LPS (TLR4) and FLA-ST (TLR5) as cell surface TLRs, and poly I:C (TLR3) and TL8-506 (TLR8) as endosomal TLRs.
A general note: In an ELISA, binding on a coated surface is turned into a signal by an enzyme label.

The target in series [3] is T2, TLR8 (Mus musculus, UniProt P58682).
T2 construct: endogenous in cells; host or cells: RAW 264.7
T2 sequence (P58682 24-1032): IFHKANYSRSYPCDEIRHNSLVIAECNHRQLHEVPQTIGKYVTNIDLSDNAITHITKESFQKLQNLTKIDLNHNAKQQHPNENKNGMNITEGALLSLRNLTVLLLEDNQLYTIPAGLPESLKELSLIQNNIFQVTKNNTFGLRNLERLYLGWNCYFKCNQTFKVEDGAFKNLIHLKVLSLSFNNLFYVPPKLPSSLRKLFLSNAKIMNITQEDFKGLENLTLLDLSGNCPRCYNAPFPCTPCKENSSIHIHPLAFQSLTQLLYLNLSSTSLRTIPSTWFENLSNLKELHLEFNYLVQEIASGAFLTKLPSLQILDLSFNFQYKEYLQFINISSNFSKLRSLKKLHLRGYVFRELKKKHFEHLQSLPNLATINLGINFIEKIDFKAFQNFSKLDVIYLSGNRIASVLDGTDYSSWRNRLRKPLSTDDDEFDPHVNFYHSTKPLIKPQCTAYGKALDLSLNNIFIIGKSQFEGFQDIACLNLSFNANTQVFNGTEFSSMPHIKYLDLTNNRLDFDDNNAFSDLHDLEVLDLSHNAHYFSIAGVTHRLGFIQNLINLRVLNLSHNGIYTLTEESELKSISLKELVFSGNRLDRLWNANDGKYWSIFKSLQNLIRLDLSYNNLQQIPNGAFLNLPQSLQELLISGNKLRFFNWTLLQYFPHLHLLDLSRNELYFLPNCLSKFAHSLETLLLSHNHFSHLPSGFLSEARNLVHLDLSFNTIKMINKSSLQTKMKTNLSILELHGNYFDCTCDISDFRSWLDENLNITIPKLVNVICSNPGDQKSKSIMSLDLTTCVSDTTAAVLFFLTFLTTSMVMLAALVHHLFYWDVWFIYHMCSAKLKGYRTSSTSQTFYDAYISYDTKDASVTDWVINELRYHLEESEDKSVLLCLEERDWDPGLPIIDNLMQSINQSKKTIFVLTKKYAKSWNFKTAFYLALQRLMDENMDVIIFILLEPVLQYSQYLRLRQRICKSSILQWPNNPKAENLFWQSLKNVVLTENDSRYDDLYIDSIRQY
Description: TNF-α secretion ELISA after TLR8 agonist TL8-506 in RAW 264.7 cells. Particulars: SK41, SK50, SK58, SK64. The format is cell-based. As to the method: as §1, §2

Entries after “also recorded” stand apart in the source; their conditions may differ.

T1 sequence (Q9EPQ1 26-795): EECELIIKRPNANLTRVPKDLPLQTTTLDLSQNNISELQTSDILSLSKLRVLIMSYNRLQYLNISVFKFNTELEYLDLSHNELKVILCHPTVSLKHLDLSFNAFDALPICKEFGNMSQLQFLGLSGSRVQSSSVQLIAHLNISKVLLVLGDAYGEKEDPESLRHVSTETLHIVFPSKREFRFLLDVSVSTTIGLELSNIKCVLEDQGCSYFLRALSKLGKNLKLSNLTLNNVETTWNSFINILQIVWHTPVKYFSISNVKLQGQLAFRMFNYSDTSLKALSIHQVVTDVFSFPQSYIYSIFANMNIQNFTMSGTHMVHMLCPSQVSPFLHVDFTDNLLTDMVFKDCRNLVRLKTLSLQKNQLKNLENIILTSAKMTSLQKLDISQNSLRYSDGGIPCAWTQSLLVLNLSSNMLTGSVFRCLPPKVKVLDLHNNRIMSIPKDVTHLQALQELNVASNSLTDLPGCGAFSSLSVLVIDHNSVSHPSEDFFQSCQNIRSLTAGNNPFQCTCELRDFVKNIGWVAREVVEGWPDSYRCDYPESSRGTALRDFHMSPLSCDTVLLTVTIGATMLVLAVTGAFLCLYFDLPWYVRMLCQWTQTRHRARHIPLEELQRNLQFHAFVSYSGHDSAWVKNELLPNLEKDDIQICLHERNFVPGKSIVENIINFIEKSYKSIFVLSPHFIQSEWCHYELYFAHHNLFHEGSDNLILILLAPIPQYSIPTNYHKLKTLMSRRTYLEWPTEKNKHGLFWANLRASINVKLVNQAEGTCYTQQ
T1 sequence (Q9QUN7 25-784): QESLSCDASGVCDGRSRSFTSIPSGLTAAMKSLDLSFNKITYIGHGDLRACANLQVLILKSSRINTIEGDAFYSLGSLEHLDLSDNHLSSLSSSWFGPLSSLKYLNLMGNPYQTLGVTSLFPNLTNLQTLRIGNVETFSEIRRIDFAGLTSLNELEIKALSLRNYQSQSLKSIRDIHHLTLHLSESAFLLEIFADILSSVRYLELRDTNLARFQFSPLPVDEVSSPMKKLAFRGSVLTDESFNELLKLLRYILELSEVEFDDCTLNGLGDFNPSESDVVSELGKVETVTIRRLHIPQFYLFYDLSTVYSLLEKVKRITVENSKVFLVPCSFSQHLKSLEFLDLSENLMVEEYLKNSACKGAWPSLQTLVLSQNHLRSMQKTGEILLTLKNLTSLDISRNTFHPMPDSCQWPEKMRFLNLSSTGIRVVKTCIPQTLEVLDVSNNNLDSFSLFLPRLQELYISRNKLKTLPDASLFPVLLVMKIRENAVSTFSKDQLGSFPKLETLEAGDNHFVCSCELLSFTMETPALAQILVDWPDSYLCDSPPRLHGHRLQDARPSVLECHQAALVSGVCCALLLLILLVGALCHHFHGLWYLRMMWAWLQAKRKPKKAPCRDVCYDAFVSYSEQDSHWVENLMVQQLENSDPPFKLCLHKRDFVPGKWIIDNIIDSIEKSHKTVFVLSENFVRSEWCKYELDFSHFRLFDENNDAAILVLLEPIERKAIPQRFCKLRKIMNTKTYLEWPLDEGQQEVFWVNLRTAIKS

For `Cc1ccc2c(c1)c1c(N)c3c(nc1n2CCCN(C)C)CCCC3` [SK58, 6-(3-(dimethylamino)propyl)-9-methyl-2,3,4,6-tetrahydro-1H-indolo[2,3-b]quinolin-11-amine], the “toxicity (LC50)” value in series [1] is given as “lower toxicity”. Besides, in series [2], the “inhibitory activity against cell surface TLR1/2 (TNF-α secretion)” value is listed as “did not exhibit a specific inhibitory activity; also recorded: no inhibitory activities”. The “inhibitory activity against endosomal TLR8 (TNF-α secretion)” value in series [3] is “strong inhibitory activity; also recorded: specific inhibitory activities”.
Turning to `COc1ccc2c(c1)c1c(N)c3c(nc1n2CCCN(C)C)CCCC3` [SK50, 6-(3-(dimethylamino)propyl)-9-methoxy-2,3,4,6-tetrahydro-1H-indolo[2,3-b]quinolin-11-amine], the “toxicity (LC50)” value in series [1] is given as “lower toxicity”. Further, the “inhibitory activity against cell surface TLR1/2 (TNF-α secretion)” value in series [2] is recorded as “did not exhibit a specific inhibitory activity; also recorded: no inhibitory activities”. The “inhibitory activity against endosomal TLR8 (TNF-α secretion)” value in series [3] is on record as “strong inhibitory activity; also recorded: specific inhibitory activities”.
In the case of `Cc1cc2c(N)c3c(nc2n1CCCN(C)C)CCCCCC3` [SK41, 1-(3-(dimethylamino)propyl)-2-methyl-5,6,7,8,9,10-hexahydro-1H-cycloocta[b]pyrrolo[3,2-e]pyridin-4-amine], the “toxicity (LC50)” value in series [1] is “lower toxicity”. Also, in series [2], the “inhibitory activity against cell surface TLR1/2 (TNF-α secretion)” value was “did not exhibit a specific inhibitory activity; also recorded: no inhibitory activities”. Further, the “inhibitory activity against endosomal TLR8 (TNF-α secretion)” value in series [3] is given as “strong inhibitory activity; also recorded: specific inhibitory activities”.
Regarding `COC(=O)c1ccc2c(c1)c1c(N)c3c(nc1n2CCCN(C)C)CCCC3` [SK64, Methyl 11-amino-6-(3-(dimethylamino)propyl)-2,3,4,6-tetrahydro-1H-indolo[2,3-b]quinolin-9-carboxylate], the “toxicity (LC50)” value in series [1] is recorded as “lower toxicity”. For the same compound, in series [2], the “inhibitory activity against cell surface TLR1/2 (TNF-α secretion)” value is recorded as “did not exhibit a specific inhibitory activity; also recorded: no inhibitory activities”. The “inhibitory activity against endosomal TLR8 (TNF-α secretion)” value in series [3] is listed as “strong inhibitory activity; also recorded: specific inhibitory activities”.
